Laboratory results taken from patent publication US20250127759A1, “METHODS AND DOSING REGIMENS COMPRISING A CDK2 INHIBITOR FOR THE TREATMENT OF CANCER” (PFIZER INC., priority 2021, published 2025).
Where two headings read alike, the source gives them in different places.

Test: Phase 1/2a study, plasma pharmacokinetics of PF-07104091
Format: in vivo, human
Conditions: human, plasma, po; for Cmax: read-out: Cmax; for half-life: read-out: t1/2 (converted)
Source text: Blood samples will be collected for measurement of plasma concentrations of PF-07104091 as specified in the protocol. Samples will be used to evaluate the PK of PF-07104091. Samples collected for analyses of PF-07104091 plasma concentration may also be used to evaluate safety or efficacy aspects related to concerns arising during or after the study, for metabolite identification and/or evaluation of the bioanalytical method, or for other internal exploratory purposes.
Plasma PF-07104091 concentrations will be summarized descriptively (n, mean, standard deviation, coefficient of variation, median, minimum, maximum, geometric mean and its associated coefficient of variation) by dose, cycle, day and nominal time. Individual participant plasma PF-07104091 concentration-time data within a dose interval (with exception of the food effect substudy) after Cycle 1 Day 1 and Cycle 1 Day 15 will be analyzed using noncompartmental methods to determine single and multiple dose PK parameters. For participants in the food effect substudy, individual plasma PF-07104091 concentration-time data after Cycle 1 Day 15 and Cycle 1 Day 16 will be analyzed using noncompartmental methods to determine multiple dose PK parameters. For Part 1 of the study, single dose PK parameters to be estimated will include the Cmax, Tmax, and AUClast, and if data permit, t1/2, CL/F, and Vz/F. Multiple dose PK parameters to be estimated will include Cmax,ss, Tmax,ss, AUCT,ss, Cmin,ss, CL/F,ss, and if data permit, V/Fss, t1/2, and Rac. For Part 2 of the study (with exception of the food effect substudy), single dose PK parameters to be estimated will include Cmax, Tmax and AUClast. Multiple dose PK parameters to be estimated will include Cmax,ss, Tmax,ss, AUClast, Cmin,ss, and Rac. The single dose and steady state PK parameters will be summarized descriptively (n, mean, standard deviation, coefficient of variation, median, minimum, maximum, geometric mean and its associated coefficient of variation) by dose level, cycle and day. For participants in the food effect substudy, multiple dose PK parameters to be estimated will include Cmax,ss, AUCT,ss, Tmax,ss, Cmin,ss, CL/Fss, and if data permit, V/Fss and t1/2.
An ongoing Phase 1/2a, open-label, multicenter, multiple dose study is being conducted to determine the safety, tolerability, PK, PD, and preliminary anti-tumor activity of PF-07104091 as a single agent and in combination with endocrine therapy. PF-07104091 is administered orally twice daily (BID) during 28-day cycles.
Preliminary concentration-time data of PF-07104091 following single and multiple oral administration at 75 mg BID to 500 mg BID as monotherapy or in combination with endocrine therapy alone or in combination with palbociclib and endocrine therapy were available from 44 participants with advanced solid tumors and HR-positive HER2-negative advanced or metastatic breast cancer. The preliminary concentration-time data were analyzed by noncompartmental approach using actual PK sampling times.
[…] Individual values are listed when the number of participants with available parameters is less than 3.

[1] = 150 mg, Cycle 1 Day 1, single oral dose, 150 mg BID monotherapy, geometric mean (CV %)
[2] = 150 mg, Cycle 1 Day 15, repeated BID oral, 150 mg BID monotherapy, geometric mean (CV %)
[3] = 225 mg, Cycle 1 Day 1, single oral dose, 225 mg BID monotherapy, geometric mean (CV %)
[4] = 225 mg, Cycle 1 Day 15, repeated BID oral, 225 mg BID monotherapy, geometric mean (CV %)
[5] = 300 mg, Cycle 1 Day 1, single oral dose, 300 mg BID monotherapy, geometric mean (CV %)
[6] = 300 mg, Cycle 1 Day 15, repeated BID oral, 300 mg BID monotherapy, geometric mean (CV %)
[7] = 375 mg, Cycle 1 Day 1, single oral dose, 375 mg BID monotherapy, individual values
[8] = 500 mg, Cycle 1 Day 1, single oral dose, 500 mg BID monotherapy, geometric mean (CV %)
[9] = 500 mg, Cycle 1 Day 15, repeated BID oral, 500 mg BID monotherapy, individual value, N = 1

Work on `COCc1cc(C(=O)Nc2cc([C@H]3CC[C@@H](OC(=O)NC(C)C)C3)[nH]n2)n(C)n1` [PF-07104091, (1R,3S)-3-[3-({[3-(methoxymethyl)-1-methyl-1H-pyrazol-5-yl]carbonyl}amino)-1H-pyrazol-5-yl]cyclopentyl propan-2-ylcarbamate] yielded an AUC(0-t) [1] of 4480 ng·h/mL, a Cmax [1] of 739 ng/mL and a Tmax (150 mg, Cycle 1 Day 1, single oral dose, 150 mg BID monotherapy, median (range), read-out: Tmax) of 2 h. It also gave a half-life (150 mg, Cycle 1 Day 1, single oral dose, 150 mg BID monotherapy, n = 1) of 168 min, an AUC(0-t) [2] of 8020 ng·h/mL and a Cmax [2] of 1320 ng/mL. It also gave a Tmax (150 mg, Cycle 1 Day 15, repeated BID oral, 150 mg BID monotherapy, median (range), read-out: Tmax) of 2.2 h, a half-life (150 mg, Cycle 1 Day 15, repeated BID oral, 150 mg BID monotherapy, n = 1) of 114 min and a half-life (225 mg, Cycle 1 Day 1, single oral dose, 225 mg BID monotherapy, arithmetic mean ± SD) of 132 ± 42 min. The AUC(0-t) [3] was 6630 ng·h/mL, the Cmax [3] was 1390 ng/mL and the Tmax (225 mg, Cycle 1 Day 1, single oral dose, 225 mg BID monotherapy, median (range), read-out: Tmax) was 3.9 h. For the same molecule, the half-life (225 mg, Cycle 1 Day 15, repeated BID oral, 225 mg BID monotherapy, arithmetic mean ± SD) was 156 ± 54 min, the AUC(0-t) [4] was 10700 ng·h/mL and the Cmax [4] was 2350 ng/mL. The Tmax (225 mg, Cycle 1 Day 15, repeated BID oral, 225 mg BID monotherapy, median (range), read-out: Tmax) was 2 h, the half-life (300 mg, Cycle 1 Day 1, single oral dose, 300 mg BID monotherapy, arithmetic mean ± SD) was 120 ± 36 min and the AUC(0-t) [5] was 9110 ng·h/mL. For the same molecule, the Cmax [5] was 1820 ng/mL, the Tmax (300 mg, Cycle 1 Day 1, single oral dose, 300 mg BID monotherapy, median (range), read-out: Tmax) was 2 h and the half-life (300 mg, Cycle 1 Day 15, repeated BID oral, 300 mg BID monotherapy, arithmetic mean ± SD) was 168 ± 12 min. It also gave an AUC(0-t) [6] of 12500 ng·h/mL, a Cmax [6] of 2570 ng/mL and a Tmax (300 mg, Cycle 1 Day 15, repeated BID oral, 300 mg BID monotherapy, median (range), read-out: Tmax) of 2.1 h. It also gave an AUC(0-t) [7] of 11600 ng·h/mL, a Cmax [7] of 2520 ng/mL and a Tmax (375 mg, Cycle 1 Day 1, single oral dose, 375 mg BID monotherapy, individual values, read-out: Tmax) of 4 h. For the same molecule, the half-life (375 mg, Cycle 1 Day 1, single oral dose, 375 mg BID monotherapy, n = 1) was 90 min, the AUC(0-t) [8] was 15200 ng·h/mL and the Cmax [8] was 2980 ng/mL. For the same molecule, the Tmax (500 mg, Cycle 1 Day 1, single oral dose, 500 mg BID monotherapy, median (range), read-out: Tmax) was 5.3 h, the AUC(0-t) [9] was 21500 ng·h/mL and the Cmax [9] was 4420 ng/mL. It also gave a Tmax (500 mg, Cycle 1 Day 15, repeated BID oral, 500 mg BID monotherapy, individual value, N = 1, read-out: Tmax) of 4 h and a Tmax (oral administration at doses up to 300 mg BID, read-out: median Tmax) of 0.5 to 4 h.
